SMILES strings stand for the structures. Calls of active or inactive are those of the source.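 How the source made its calls: active means compounds giving half or more protection of infected cells from virus-caused growth loss, again on retest; inactive means the rest.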 Where a SMILES comes first, the peptide text is derived from it.

The results in this text go back to PubChem BioAssay AID179 (DTP/NCI, 2004).

The subject of the assay is CEM cells HIV-1 protection, formazan growth assay. The assay can be described thus: NCI AIDS Antiviral Assay. As to conditions: for IC50: measured here: growth of uninfected CEM cells. In a few lines: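 Soluble formazan readout of cell growth; CEM cells ± HIV-1; 5 drug concs. ≥50% protection → retest; ≥50% again = moderately active; reproducible 100% = confirmed active.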

Turning to `O=C(/C=C\c1ccccc1O)c1ccc(O)cc1O`, the EC50 (as a rule, the concentration giving half of the maximal effect) is over 72.4 µM and the IC50 (in general, the midpoint of a concentration-inhibition curve) turned out to be 7.24 µM.

In the case of `O=C1c2cccc3cccc(c23)C(=O)N1CCN1C(=O)c2cccc3cccc(c23)C1=O`, the EC50 is over 200 µM and the half-inhibitory concentration (IC50) is 30.2 µM.

As for `CC(=O)Nc1ccc(C2[C@H]3C(=O)N(c4ccc(Cc5ccc(N6C(=O)[C@@H]7ON(c8ccccc8)C(c8ccc(NC(C)=O)cc8)[C@@H]7C6=O)cc5)cc4)C(=O)[C@H]3ON2c2ccccc2)cc1` (stereo partly specified), the EC50 was over 6.03 µM and the IC50 was over 6.03 µM.

With `CNC1c2ccccc2C(=O)c2cc3c(cc21)OCCOCCOCCOCCO3` (stereo unspecified), the EC50 is over 200 µM and the IC50 was 36.3 µM.

Take `O=P(CCOc1ccccc1OCCP(=O)(c1ccccc1)c1ccc2c(c1)OCCOCCOCCOCCO2)(c1ccccc1)c1ccc2c(c1)OCCOCCOCCOCCO2` (stereo unspecified): the EC50 is over 263 µM and the IC50 was over 263 µM.

As for `CCCCCCCCCCCCCCCCCCCCC(C(=O)OCC)S(=O)(=O)O` (stereo unspecified), the EC50 is over 100 µM and the IC50 was found to be 19.5 µM.

Take `COc1ccc(NC(=O)/C(C#N)=C/c2ccc(O)c(O)c2)cc1O`: the EC50 is over 200 µM and the half-maximal inhibitory concentration (IC50) came to 16.2 µM.

As for `CN(C)c1ccc(N=Nc2cccc3ccoc23)cc1`, the result was inactive.

Regarding `CC(C)=CC[P+](CCC[P+](CC=C(C)C)(c1ccccc1)c1ccccc1)(c1ccccc1)c1ccccc1`, the EC50 was over 57.5 µM and the IC50 was over 57.5 µM.

`CC(=O)OC1COC(Nc2nc(N)n(C)c(=O)c2N=O)C(OC(C)=O)C1OC(C)=O` (stereo unspecified): the EC50 is over 200 µM and the IC50 was over 200 µM.

For the molecule `O=C(O)CCCCSCCCCCCSCCCCC(=O)O`, the EC50 was over 141 µM and the IC50 was over 141 µM.

For `CCCCN(CCCC)CC(N=O)c1cc(-c2ccc(Cl)c(Cl)c2)nc2c(Cl)cc(Cl)cc12` (stereo unspecified), the outcome was inactive.

`CCN(CC)C(=S)Nc1ccc(-c2cc3ccc(O)cc3oc2=O)cc1`: the EC50 is over 200 µM and the IC50 amounted to 14.1 µM.

`CC(=O)NC1=CC(=O)C=C(Cl)C1=O`: the EC50 is over 200 µM and the IC50 worked out at 32.4 µM.

As to `COc1cc(C(=O)C/C(CCC(=O)Nc2ccccc2[N+](=O)[O-])=N\NC(N)=O)ccc1O`, the EC50 was over 562 µM and the IC50 amounted to 525 µM.

Regarding `O=C1NCCN1/N=C/c1ccc([N+](=O)[O-])o1`, the EC50 was over 200 µM and the concentration for half-maximal inhibition (IC50) amounted to 120 µM.

Turning to `COC(=O)CC(NC(=O)OCc1ccccc1)C(C(=O)OCc1ccccc1)C1(C)OCCO1` (stereo unspecified), the EC50 is over 50.1 µM and the IC50 was determined as 34.7 µM.

In the case of `c1ccc(SCN2CCN(CSc3ccccc3)CC2)cc1`, the EC50 is over 30.2 µM and the IC50 was found to be 5.75 µM.

As to `N#CCCN(CCC#N)c1ccc(/C=C2/N=C(COc3ccccc3)N(c3ccc(Cl)cc3)C2=O)cc1`, the EC50 is over 37.2 µM and the IC50 was over 37.2 µM.

For `COc1ccc(COCC[C@H](C)OC2OC(CO)C(O)C(O)C2O)cc1` (stereo partly specified), the EC50 was over 200 µM and the IC50 was over 200 µM.

Turning to `O=C(O)c1ccc([As](=O)(O)O)c([N+](=O)[O-])c1`, the half-maximal effective concentration (EC50) is over 200 µM and the 50% inhibitory concentration (IC50) is over 200 µM.

For `CC(=O)/C(=C/N1CCNC1=S)C(=O)Nc1ccccc1C`, the EC50 was over 200 µM and the IC50 is over 200 µM.

For `CC(=O)Nc1cccc(C[P+](c2ccccc2)(c2ccccc2)c2ccccc2)c1`, the EC50 was over 200 µM and the concentration for half-maximal inhibition (IC50) worked out at 91.2 µM.

Consider `CC(C)(C)[Si](C)(C)OCCOCn1cc(F)c(=O)[nH]c1=O`, for which the EC50 is over 200 µM and the IC50 was over 200 µM.

As for `O=C1OCC(CN2CCC(n3c(=O)[nH]c4ccccc43)CC2)=C1c1ccccc1`, the EC50 was over 200 µM and the IC50 turned out to be 30.9 µM.

Consider `CC1=CC(=O)C(C(O)(C(F)(F)F)C(F)(F)F)C(C)(C)C1` (stereo unspecified), for which the EC50 is over 200 µM and the IC50 is over 200 µM.

In the case of `N#C[C@H](OC1OC(COC(=O)/C=C/c2ccc(O)c(O)c2)C(O)C(O)C1O)c1ccccc1` (stereo partly specified), the result was inactive.

Turning to `CC1(C)CN=C(Nc2ccc(F)c(F)c2)S1`, the EC50 is over 200 µM and the 50% inhibitory concentration (IC50) is over 200 µM.

As for `O=C(c1ccc(Cl)cc1)c1cnc(Nc2ccccc2Cl)s1`, the EC50 is over 10.7 µM and the IC50 was over 10.7 µM.

With `CN(C)/C=N\c1c(C#N)c(CC#N)nn1-c1ccccc1`, the EC50 was over 200 µM and the IC50 was over 200 µM.

For `C=Cc1ccncc1`, the EC50 is over 200 µM and the IC50 is over 200 µM.

Consider `N#CCCN(CCC#N)c1ccc(/C=C2\SC(=S)NC2=O)cc1`, for which the EC50 is over 200 µM and the IC50 was over 200 µM.

For `CC1=Cc2cc3[n-]c(cc4nc(cc5[n-]c(cc1n2)cc5C)C(C)=C4CCC(=O)O)c(CCC(=O)O)c3C.[Pd+2]`, the EC50 was over 11.7 µM and the IC50 was found to be 1.02 µM.

In the case of `CC(C)[C@](O)(C(=O)OCC1=CC[N+]2([O-])CC[C@@H](O)[C@@H]12)[C@H](C)O` (stereo partly specified), the EC50 is over 398 µM and the IC50 is over 398 µM.

Consider `CCCCN(CC)CC(C(C)=O)c1c(O)c2ccccc2oc1=O` (stereo unspecified), for which the EC50 is over 70.8 µM and the IC50 is over 70.8 µM.

Consider `c1ccc2nocc2c1`, for which the EC50 is over 2090 µM and the IC50 stood at 1100 µM.

On to `CC1(C)NC(=O)N(C(C)(C)C(=O)O)C1=O`, for which the EC50 was over 200 µM and the IC50 is over 200 µM.

For the molecule `CCOC(=O)/C=C(/CN1C(=O)c2ccccc2C1=O)c1ccccc1`, the result was inactive.

In the case of `CN(N=O)C(=O)ON1C(=O)CCC1=O`, the EC50 is over 1230 µM and the IC50 stood at 107 µM.

As for `Cc1[nH]c(=O)nc(N/N=C/c2ccc(Cl)cc2)c1C(=O)Nc1ccc(Cl)cc1`, the result was inactive.

`O=C1OC(OC/C(Br)=C(/Br)COC2OC(=O)C(Cl)=C2Cl)C(Cl)=C1Cl` (stereo unspecified): the EC50 is over 200 µM and the concentration for half-maximal inhibition (IC50) amounted to 3.47 µM.

As to `CCOC(=O)N1CCC2(CC1)C[C@@](C(C)=O)(c1ccccc1)C(C)O2` (stereo partly specified), the EC50 is over 200 µM and the IC50 was over 200 µM.

Regarding `CCC(C#N)(c1ccccc1)N(CCc1ccccc1)C(=O)c1ccccc1` (stereo unspecified), the EC50 is over 200 µM and the IC50 was found to be 191 µM.

Regarding `COc1cc2oc(-c3ccc4c(c3)OCO4)c(OC)c(=O)c2c(OC)c1OC`, the EC50 was 155 µM and the IC50 is over 200 µM.

For the molecule `O=C1NC(N/N=C\c2ccccc2)=N/C1=C/c1ccccc1`, the EC50 is over 200 µM and the IC50 turned out to be 35.5 µM.

For `O=C1OCCN1c1ccccc1`, the EC50 was over 1100 µM and the half-maximal inhibitory concentration (IC50) was over 1100 µM.

On to `CCC(C)C1NC(=O)C2CCCN2C(=O)CNC(=O)C(C)NC(=O)C(Cc2ccccc2)NC(=O)C(C(C)C)NC1=O` (stereo unspecified) (cyclo(GPIVFA); configuration not given here), for which the result was inactive.

For `O=C(/C=C/C1C(=O)NC(=O)NC1=O)CC(=O)C(=O)Nc1cc(Cl)c(Cl)cc1Cl`, the EC50 is over 209 µM and the IC50 was over 209 µM.

With `C[C@H](CCc1nc(C#N)c(N)o1)[C@H]1CC[C@H]2[C@@H]3CCC4C[C@@H](O)CC[C@]4(C)[C@H]3C[C@@H](O)[C@]12C` (stereo partly specified), the EC50 is over 20 µM and the IC50 was 1.95 µM.

As for `O=C1C=CC(=O)c2cc(Sc3ccccc3)c(=O)ccc21`, the EC50 was over 123 µM and the IC50 turned out to be 1.26 µM.

In the case of `O=C(N/N=C/c1ccco1)c1cccnc1`, the EC50 was over 200 µM and the IC50 was over 200 µM.
